Test results taken from patent US20150125452A1, “COMBINATION TREATMENTS COMPRISING C-MET ANTAGONISTS AND B-RAF ANTAGONISTS” (GENENTECH, INC., priority 2011, published 2015).
Entries after “also recorded” stand apart in the source; their conditions may differ.

Legend:
Assay type in all cases: cell-based, Human
[1] = system: H2228 EML4-ALK translocated NSCLC cells; assay: Syto 60 viability and long-term staining with TAE684 and HGF
Description: (§1) Cells were co-treated with 50 ng/mL HGF. Error bars represent mean+/−s.e.m. […] FIG. 8C, Syto 60 staining of H2228 EML4-ALK translocated NSCLC cells treated with TAE684 (2 μM) in the presence and absence of HGF (50 ng/mL) as indicated. Cells were treated every 3 days for 9 days. FIG. 8D, Syto 60 staining of H358 EGF-like ligand-driven NSCLC cells treated with Erlotinib (5 μM) in the presence and absence of HGF (50 ng/mL) as indicated. Cells were treated every 3 days for 9 days.
FIG. 16: Syto 60 staining of H2228 EML4-ALK translocated NSCLC cells treated with TAE684 (2 μM) in the presence or absence of HGF (50 ng/mL) as indicated. Cells were treated every 3 days for 9 days.
(§2) Cell viability was assessed using the nucleic acid stain Syto 60 (Invitrogen). Cells (3000-5000 per well) were seeded into 96 well plates and allowed to adhere overnight. The next day, cells were treated with (or without) 50 ng/mL RTK ligand and concomitantly exposed to an increasing concentration range of the relevant kinase inhibitor. Following 72 hours drug exposure, cells were fixed in 4% formaldehyde, stained with Syto 60 and cell number was assessed using an Odyssey scanner (Li-Cor). Cell viability was calculated by dividing the fluorescence obtained from the drug-treated cells by the fluorescence obtained from the control (no drug) treated cells.

[2] = system: HER2-amplified breast cancer cell lines; assay: Syto 60 cell viability, ligand rescue from lapatinib; conditions: 50 ng/mL ligand, 72 h
Description: as §2
The ability of HGF to rescue 3 of 9 tested HER2-amplified breast cancer cell lines from growth inhibition by the HER2 kinase inhibitor lapatinib was also unexpected (FIG. 3A). These 3 cell lines all express MET, and expression was well correlated with the ability of HGF to attenuate lapatinib response (FIG. 3B).

[3] = system: AKT and ERK phosphorylation; assay: Immunoblots of survival pathway re-activation
Description: FIGS. 2A-2C: pro-survival pathway re-activation correlated with RTK ligand rescue. FIG. 2A, Immunoblots showing the effect of acute RTK ligand treatment (50 ng/mL) on AKT and ERK phosphorylation following kinase inhibition (1 μM, 2 h). RTK ligand rescue is indicated, grey squares indicates complete rescue and black squares indicates partial rescue as determined by the initial screen (FIG. 1B). […] Cells were co-treated with 50 ng/mL RTK ligand in the presence of the appropriate secondary kinase inhibitor (0.5 μM) as indicated. […] Error bars represent mean+/−s.e.m. FIG. 2C, Immunoblots showing the effect of acute kinase inhibition (1 μM) in the presence and absence of RTK ligands (50 ng/mL, 2 h) on AKT and ERK phosphorylation. Cells were co-treated with secondary kinase inhibitor (0.5 μM) as appropriate.
Cell lysates were harvested using Nonidet-P40 lysis buffer, supplemented with Halt protease and phosphatase inhibitor cocktail (Thermo Scientific) and immunodetection of proteins was carried out using standard protocols. The phospho-HER2 (Y1248; #2247), HER2 (#2242), phospho-HER3 (Y1289; #4791), phospho-MET (Y1234/5; #3126), PDGFRα (#5241), phospho-FRS2α (Y196; #3864), IGF-1Rβ (#3027), phospho-ALK (Y1604; #3341), AKT (#9272), phospho-ERK (T202/Y204; #9101), ERK (#9102), GAPDH (#2118) and β-Tubulin (#2146) antibodies were purchased from Cell Signaling Technologies. Antibodies to HER3 (SC-285), MET (SC-10), phospho-PDGFRα (SC-12911), FRS2α (SC-8318), FGFR1 (SC-7945), FGFR2 (SC-122), FGFR3 (SC-13121) and ALK (SC-25447) were purchased from Santa Cruz Biotechnologies. Phospho-AKT (S473; #44-621G) antibody was purchased from Invitrogen. Phospho-EGFR (Y1068; ab5644) antibody was purchased from Abeam. EGFR (#610017) antibody was purchased from BD Biosciences. PARP (#14-6666-92) antibody was purchased from eBioscience. Densitometry was carried out using ImageJ software.

[4] = system: kinase-addicted cancer cell lines; assay: RTK ligand matrix screen, Syto 60 cell viability
Description: as §2
Cell lines. Human cancer cell lines were obtained and tested for sensitivity using an automated platform as previously described (Johannessen, C. M. et al. COT drives resistance to RAF inhibition through MAP kinase pathway reactivation. Nature 468, 968-972, doi:10.1038/nature09627 (2010)). Cell lines were maintained at 37° C. in a humidified atmosphere at 5% CO2 and grown in RPMI 1640 or DMEM/F12 growth media (GIBCO) supplemented with 10% fetal bovine serum (GIBCO), 50 units/mL penicillin and 50 μg/mL streptomycin (GIBCO).
Using 41 different human tumor-derived cell lines with previously defined kinase dependency^7-9, we undertook a “matrix analysis” to examine the effects of 6 different RTK ligands (HGF, EGF, FGF, PDGF, NRG1, IGF)—known to be widely expressed in cancer cells and tumor stroma^10—on drug response. Specifically, we quantified the effect of exposing these cancer cell lines (e.g., AU565 (HER2 amp)) to each ligand on the IC50 for a kinase inhibitor (e.g., lapatinib) that otherwise potently suppresses their growth within 72 hours (FIG. 1A). Nearly all of the kinase-dependent cancer cell lines tested, which included cells derived from multiple tissue types and with distinct kinase dependencies (EGFR, HER2, BRAF, MET, ALK, PDGFR, and FGFR), could be rescued from drug-induced growth inhibition by one or more RTK ligands, highlighting the potentially broad contribution of these ligands to the response to selective kinase inhibitors in kinase-addicted tumor cells (FIG. 1B).

[5] = system: H358 EGF-like ligand-driven NSCLC cells; assay: Syto 60 long-term staining with erlotinib and HGF; conditions: erlotinib 5 μM, HGF 50 ng/mL, every 3 days for 9 days
Description: as §1

HGF: recombinant human RTK ligand (MET ligand) purchased from Peprotech
effect of HGF on longer-term TAE684 treatment ([1]; TAE684 2 μM, HGF 50 ng/mL, every 3 days for 9 days): rescued; also recorded: prevented acquired resistance to TAE684
rescue from ALK inhibition by HGF at 72 hour time-point ([1]; TAE684, HGF, 72 h): not rescued from ALK inhibition
number of HER2-amplified breast cancer cell lines rescued from lapatinib [2]: 3 of 9
PI3K/MAPK pathway re-activation by RTK ligand in presence of kinase inhibitor ([3]; 50 ng/mL ligand, kinase inhibitor 1 μM, 2 h): re-activated both PI3K and MAPK pathways
re-activation of PI3K and MAPK signalling in HER2 amplified cell lines ([3]; AU565, HCC1954 (MET positive), BT474 (MET negative), lapatinib 1 μM, HGF 50 ng/mL, 2 h): re-activated PI3K and MAPK signalling pathways specifically in MET-positive, but not in MET-negative cells
persistence of redundant RTK activation and downstream survival signalling ([3]; AU565 cells, lapatinib 1 μM and HGF 50 ng/mL): at least 48 hours
re-activation of AKT and ERK activity in presence of TAE684 ([3]; H2228 cells): able to re-activate AKT and ERK activity
ERK and AKT activation in presence of TAE684 ([3]; H3122 cells, TAE684 1 μM, HGF 50 ng/mL, 2 h): promotes ERK and AKT activation
re-activation of MAPK signalling (pERK) in BRAF mutant cell lines ([3]; PLX[…] 1 μM, HGF 50 ng/mL, 2 h, MET positive versus MET negative lines): could re-activate MAPK signalling in cell lines that were rescued by HGF
effect of RTK ligand on conferring drug resistance to kinase inhibitors ([4]; 50 ng/mL RTK ligand, 72 h, 41 cell lines): most broadly active ligands
effect of HGF on response to PLX[…] ([4]; BRAF mutant PLX[…]-sensitive melanoma and colorectal cell lines): significantly attenuated the response
rescue despite activation of receptor and a downstream survival effector ([4]; H2228 and H358 cells with HGF, COLO-201 cells with NRG1): not sufficient to rescue cells from kinase inhibition
effect of HGF on longer-term erlotinib treatment [5]: rescued
